Here are results for twelve compounds from US9617237B2, “Partially saturated tricyclic compounds and methods of making and using same” (Zafgen, Inc., priority 2011, dated 2017).

The experiment deals with T1, recombinant human MetAP2 (Homo sapiens, UniProt P50579).
T1 construct: made in house; host or cells: Sf9 insect cells
T1 sequence (P50579 whole entry): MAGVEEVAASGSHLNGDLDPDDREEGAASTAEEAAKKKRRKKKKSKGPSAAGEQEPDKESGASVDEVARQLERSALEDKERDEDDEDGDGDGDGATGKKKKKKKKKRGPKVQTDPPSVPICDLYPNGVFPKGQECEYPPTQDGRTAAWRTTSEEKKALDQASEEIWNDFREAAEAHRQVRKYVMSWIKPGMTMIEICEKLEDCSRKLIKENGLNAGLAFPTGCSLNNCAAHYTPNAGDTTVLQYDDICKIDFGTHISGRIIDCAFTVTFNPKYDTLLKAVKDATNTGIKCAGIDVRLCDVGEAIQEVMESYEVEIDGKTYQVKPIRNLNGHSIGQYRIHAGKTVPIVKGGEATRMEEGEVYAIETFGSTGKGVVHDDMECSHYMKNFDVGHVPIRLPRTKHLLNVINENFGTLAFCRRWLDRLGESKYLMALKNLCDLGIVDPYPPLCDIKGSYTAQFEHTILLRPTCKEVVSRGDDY
Briefly: Inhibition of recombinant human MetAP2 activity (fluorescence, MAS substrate, amino acid oxidase/Amplex red). Format: biochemical. The following applies: manganese enzyme; 0.75 mM Methionine-Alanine-Serine (MAS) substrate; 30 minutes at 25° C.; pH 7.5; 1% DMSO.
What is called IC50 is the concentration that gives 50% inhibition. Take `CCN(CC)CCCc1cc(F)ccc1S(=O)(=O)Nc1ccc2c(c1C(=O)O)OC[C@@H]1C[C@H]21` [(1aR,7bS)-5-[2-(3-Diethylaminopropyl)-4-fluorobenzenesulfonyl-amino]-1,1a,2,7b-tetrahydrocyclopropa[c]chromene-4-carboxylic acid]: the half-inhibitory concentration (IC50) was < 0.05 µM. For the compound `CCN(CC)C/C=C\c1cc(F)ccc1S(=O)(=O)Nc1ccc2c(c1C(=O)O)OC[C@H]1OCC[C@@H]21` (racemic) [Cis-(3aRS,9bRS)-7-[2-((Z)-3-Diethylaminoprop-1-enyl)-4-fluoro-benzenesulfonylamino]-1,3a,4,9b-tetrahydro-2H-furo[2,3-c]chromene-6-carboxylic acid], the IC50 is < 0.05 µM. For `CCN1CCC[C@H]1CCNc1ccccc1S(=O)(=O)Nc1ccc2c(c1C(=O)O)OC[C@@H]1C[C@H]21` (mixture of isomers) [(1aRS,7bSR)-5-{2-[2-((S)-1-Ethylpyrrolidin-2-yl)ethylamino]-benzenesulfonyl-amino}-1,1a,2,7b-tetrahydrocyclopropa-[c]chromene-4-carboxylic acid] the value was < 0.05 µM; for `CCN1CC[C@@H](Nc2ccccc2S(=O)(=O)Nc2ccc3c(c2C(=O)O)OC[C@@H]2C[C@H]32)C1` (mixture of isomers) [(1aRS,7bSR)-5-{2-[((R)-1-Ethylpyrrolidin-3-yl)amino]-benzenesulfonylamino}-1,1a,2,7b-tetrahydrocyclopropa-[c]chromene-4-carboxylic acid], 0.05 to 0.5 µM; for `CCN1CC[C@@H](Cc2cc(F)ccc2S(=O)(=O)Nc2ccc3c(c2C(=O)O)OC[C@@H]2C[C@H]32)C1` (single isomer, unassigned), < 0.05 µM. As to `CCN(CC)CCCc1cc(F)ccc1S(=O)(=O)Nc1ccc2c(c1C(=O)O)OC[C@H]1OCC[C@@H]21` (racemic) [Cis-(3aRS,9bRS)-7-[2-(3-Diethylaminopropyl)-4-fluorobenzenesulfonyl-amino]-1,3a,4,9b-tetrahydro-2H-furo[2,3-c]chromene-6-carboxylic acid], the IC50 was in the range of 0.05 to 0.5 µM. With `CCN1CCCC(Cc2cc(F)ccc2S(=O)(=O)Nc2ccc3c(c2C(=O)O)OC[C@@H]2C[C@H]32)C1` (stereo partly drawn) [(1aR,7bS)-5-[2-(1-Ethylpiperidin-3-ylmethyl)-4-fluorobenzene-sulfonylamino]-1,1a,2,7b-tetrahydrocyclopropa[c]chromene-4-carboxylic acid], the IC50 was 0.05 to 0.5 µM. For `CCN(CC)C/C=C\c1cc(F)ccc1S(=O)(=O)Nc1ccc2c(c1C(=O)O)NC[C@H]1OCC[C@@H]21` (racemic) [Cis-(3aRS,9bRS)-7-[2-((Z)-3-Diethylaminoprop-1-enyl)-4-fluorobenzenesulfonylamino]-1,2,3a,4,5,9b-hexahydrofuro[2,3-c]quinoline-6-carboxylic acid] the value was < 0.05 µM; for `CCNC/C=C\c1cc(F)ccc1S(=O)(=O)Nc1ccc2c(c1C(=O)O)OC[C@@H]1C[C@H]21` (racemic) [(1aRS,7bSR)-5-[2((Z)-3-Ethylaminoprop-1-enyl)-4-fluoro-benzenesulfonylamino]-1,1a,2,7b-tetrahydrocyclopropa-[c]chromene-4-carboxylic acid], < 0.05 µM. Consider `CN(C)CCCCNc1ccccc1S(=O)(=O)Nc1ccc2c(c1C(=O)O)OC[C@H]1OCC[C@@H]21` (racemic) [Cis-(3aRS,9bRS)-7-[2-(4-dimethylamino-butylamino)-benzenesulfonylamino]-1,3a,4,9b-tetrahydro-2H-furo[2,3-c]chromene-6-carboxylic acid], for which the IC50 lay in the range of 0.05 to 0.5 µM. For `CCN(CC)C/C=C\c1cc(F)ccc1S(=O)(=O)Nc1ccc2c(c1C(=O)O)OCC1C2C1(F)F` (racemic) [(1aRS,7bSR)-5-[2-((Z)-3-Diethylaminoprop-1-enyl)-4-fluorobenzene-sulfonylamino]-1,1-difluoro-1,1a,2,7b-tetrahydrocyclopropa[c]chromene-4-carboxylic acid] the value was < 0.05 µM. Take `CCN(CC)CC/C=C\c1cc(F)ccc1S(=O)(=O)Nc1ccc2c(c1C(=O)O)OCC1CC21` (single isomer, unassigned) [(1aRS,7bSR)-5-[2((Z)-4-diethylaminobut-1-enyl)-4-fluorobenzenesulfonyl-amino]-1,1a,2,7b-tetrahydrocyclopropa[c]chromene-4-carboxylic acid]: the IC50 is 0.05 to 0.5 µM.
